Experimental findings from BindingDB's records for doi:10.1021/jm9604383 (Goethe-University Frankfurt, 2021) are described below.

Assay [1] concerns the target T1, Adenosine receptor A3 (Homo sapiens, UniProt P0DMS8).
T1 sequence (P0DMS8 whole entry): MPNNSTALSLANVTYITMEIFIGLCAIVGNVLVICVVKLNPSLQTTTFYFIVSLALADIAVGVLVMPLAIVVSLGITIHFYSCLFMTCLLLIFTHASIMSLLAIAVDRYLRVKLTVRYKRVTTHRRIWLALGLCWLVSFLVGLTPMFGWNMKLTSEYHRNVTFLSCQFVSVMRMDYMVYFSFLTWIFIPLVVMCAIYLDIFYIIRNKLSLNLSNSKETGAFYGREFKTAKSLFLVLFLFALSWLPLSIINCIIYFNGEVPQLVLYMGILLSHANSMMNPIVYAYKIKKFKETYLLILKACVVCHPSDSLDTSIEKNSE
Description: Displacement of [1251]AB-MEC from human A3 receptor assessed as inhibition constant.

Assay [2] has as its target T1, Adenosine receptor A3. Kind of assay: Binding affinity to human A3 adenosine receptor assessed as inhibition constant.
The target in the next assay is T2, Adenosine receptor A1 (Homo sapiens, UniProt P30542).
T2 sequence (P30542 whole entry): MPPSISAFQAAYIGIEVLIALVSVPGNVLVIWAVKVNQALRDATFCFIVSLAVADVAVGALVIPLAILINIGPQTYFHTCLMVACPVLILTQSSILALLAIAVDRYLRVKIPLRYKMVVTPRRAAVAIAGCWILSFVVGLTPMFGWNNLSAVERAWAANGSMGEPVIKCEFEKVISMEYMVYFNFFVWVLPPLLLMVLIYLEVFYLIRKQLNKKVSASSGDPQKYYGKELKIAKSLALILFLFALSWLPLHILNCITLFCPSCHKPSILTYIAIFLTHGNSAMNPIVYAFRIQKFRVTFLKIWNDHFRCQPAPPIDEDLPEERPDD
Kind of assay: Binding affinity to human A1 adenosine receptor assessed as inhibition constant.

Assay [3] concerns the target T3, Adenosine receptor A2b (Homo sapiens, UniProt P29275).
T3 sequence (P29275 whole entry): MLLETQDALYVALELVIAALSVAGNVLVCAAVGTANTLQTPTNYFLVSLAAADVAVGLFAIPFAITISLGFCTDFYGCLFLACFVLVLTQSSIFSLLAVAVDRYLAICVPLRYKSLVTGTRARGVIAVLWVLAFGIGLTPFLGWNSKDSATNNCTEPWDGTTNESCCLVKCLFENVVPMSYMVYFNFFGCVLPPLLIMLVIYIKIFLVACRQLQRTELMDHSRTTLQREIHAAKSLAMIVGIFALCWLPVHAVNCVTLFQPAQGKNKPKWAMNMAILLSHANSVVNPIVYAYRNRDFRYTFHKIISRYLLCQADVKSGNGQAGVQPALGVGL
Description: Displacement of [3H]DPCPX to human A2B adenosine receptor derived from HEK cells assessed as inhibition constant.

Assay [4] concerns the target T3, Adenosine receptor A2b. Description: Inhibition of human A2b adenosine receptor.
In assay [5] the target is T4, Palmitoleoyl-protein carboxylesterase NOTUM (Homo sapiens, UniProt Q6P988).
T4 sequence (Q6P988 whole entry): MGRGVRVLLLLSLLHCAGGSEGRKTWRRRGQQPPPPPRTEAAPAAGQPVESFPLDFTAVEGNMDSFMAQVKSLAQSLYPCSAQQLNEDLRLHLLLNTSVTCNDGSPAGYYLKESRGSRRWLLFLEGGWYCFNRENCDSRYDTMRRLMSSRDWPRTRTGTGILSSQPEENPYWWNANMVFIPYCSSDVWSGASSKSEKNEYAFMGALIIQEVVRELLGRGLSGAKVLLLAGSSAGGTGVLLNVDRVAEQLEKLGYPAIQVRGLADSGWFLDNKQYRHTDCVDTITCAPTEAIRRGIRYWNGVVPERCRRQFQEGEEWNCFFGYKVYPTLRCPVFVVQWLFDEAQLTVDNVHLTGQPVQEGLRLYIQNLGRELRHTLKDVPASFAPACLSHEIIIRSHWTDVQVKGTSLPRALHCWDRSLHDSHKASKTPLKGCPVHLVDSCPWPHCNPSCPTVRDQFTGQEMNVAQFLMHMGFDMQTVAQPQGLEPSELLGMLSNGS
Kind of assay: Inhibition of human notum using OTPS as substrate incubated for 16 hrs by fluorescent based assay.

In the case of `CCCCn1c(=O)c2c(ncn2[C@@H]2O[C@H](C(=O)NC)[C@@H](O)[C@H]2O)n(CCCC)c1=O` [5-(1,3-Dibutyl-2,6-dioxo-1,2,3,6-tetrahydro-purin-7-yl)-3,4-dihydroxy-tetrahydro-furan-2-carboxylic acid methylamide], the Ki at Adenosine receptor A3 [1] worked out at 229 nM.

As for `CC[C@@H]1Cn2c(c3nc(-c4cc(Cl)cc(Cl)c4Cl)nc-3n(C)c2=O)N1`, at Adenosine receptor A3 [2], the Ki amounted to 0.433 nM.

Regarding `CCCn1c(=O)c2nc(C3CC4CC3C3OC43)[nH]c2n(CCC)c1=O` (stereo not drawn) [8-(3-Oxa-tricyclo[3.2.1.0*2,4*]oct-6-yl)-1,3-dipropyl-3,7-dihydro-purine-2,6-dione], at Adenosine receptor A1, the Ki was determined as 0.95 nM.

Take `CCCn1c(=O)[nH]c2nc(-c3cnn(Cc4noc(-c5ccc(Cl)cc5)n4)c3)[nH]c2c1=O` [8-(1-((5-(4-chlorophenyl)-1,2,4-oxadiazol-3-yl)methyl)-1H-pyrazol-4-yl)-1-propyl-1H-purine-2,6(3H,7H)-dione]: the Ki on Adenosine receptor A2b [3] was found to be 5.5 nM.

As for `Cn1cnc2c1c(=O)[nH]c(=O)n2C` [theobromine], on Adenosine receptor A2b [4], the IC50 worked out at 130000 nM.

On to `CCCn1c(=O)c2nc(-c3ccc(S(=O)(=O)NCCN(C)C)cc3)[nH]c2n(CCC)c1=O`, for which, at Adenosine receptor A1, the Ki turned out to be 6.5 nM.

As for `CCCn1c(=O)c2nc(-c3ccc(OCC(N)=O)cc3O)[nH]c2n(CCC)c1=O`, the Ki on Adenosine receptor A1 stood at 6.5 nM.

In the case of `Cn1c(=O)c2c(ncn2C)n(C)c1=O`, 19000 nM corresponded to half-maximal inhibition in assay [5] (IC50).
